Where two headings read alike, the source gives them in different places.
How the values were obtained:
EOL-1 AML cell line = assay: Single agent cell viability (CellTiterGlo); type: cell-based; conditions: Homo sapiens, EOL1, 72 h; EOL-1, single agent, 3 days incubation, CellTiterGlo; read-out: IC50
Procedure: (§1) Cell lines were cultured at 37° C. in a humidified atmosphere containing 5% CO2 and expanded in T-150 flasks. […] In order to analyse the activity of the compounds as single agents, cells were seeded and treated with nine 2-fold serial dilutions of each compound dispensed individually directly into the cell assay plates. […] All the experiments were performed in triplicates. Luminescence was quantified on a multipurpose plate reader. Single agent IC50s were calculated using standard four-parametric curve fitting.

GDM-1 AML cell line = assay: Single agent cell viability (CellTiterGlo); type: cell-based; conditions: Homo sapiens, 72 h; GDM-1, single agent, 3 days incubation, CellTiterGlo; read-out: IC50
Procedure: as §1

HL-60 AML cell line = assay: Single agent cell viability (CellTiterGlo); type: cell-based; conditions: Homo sapiens, 72 h; HL-60, single agent, 3 days incubation, CellTiterGlo; read-out: IC50
Procedure: as §1

KG1 AML cell line = assay: Single agent cell viability (CellTiterGlo); type: cell-based; conditions: 72 h; KG1, single agent, 3 days incubation, CellTiterGlo; read-out: IC50
Procedure: as §1

KG1a AML cell line = assay: Single agent cell viability (CellTiterGlo); type: cell-based; conditions: Homo sapiens, KG-1a, 72 h; KG1a, single agent, 3 days incubation, CellTiterGlo; read-out: IC50
Procedure: as §1

Kasumi-1 AML cell line = assay: Single agent cell viability (CellTiterGlo); type: cell-based; conditions: Homo sapiens, 72 h; Kasumi-1, single agent, 3 days incubation, CellTiterGlo; read-out: IC50
Procedure: as §1

ML-2 AML cell line = assay: Single agent cell viability (CellTiterGlo); type: cell-based; conditions: 72 h; ML-2, single agent, 3 days incubation, CellTiterGlo; read-out: IC50
Procedure: as §1

MOLM-13 AML cell line = assay: Single agent cell viability (CellTiterGlo); type: cell-based; conditions: Homo sapiens, 72 h; MOLM-13, single agent, 3 days incubation, CellTiterGlo; read-out: IC50
Procedure: as §1

MV4; 11 AML cell line = assay: Single agent cell viability (CellTiterGlo); type: cell-based; conditions: Homo sapiens, 72 h; MV4; 11, single agent, 3 days incubation, CellTiterGlo; read-out: IC50
Procedure: as §1

Nomo-1 AML cell line = assay: Single agent cell viability (CellTiterGlo); type: cell-based; conditions: Homo sapiens, 72 h; Nomo-1, single agent, 3 days incubation, CellTiterGlo; read-out: IC50
Procedure: as §1

OCI-AML3 AML cell line = assay: Single agent cell viability (CellTiterGlo); type: cell-based; conditions: Homo sapiens, OCI-AML-3, 72 h; OCI-AML3, single agent, 3 days incubation, CellTiterGlo; read-out: IC50
Procedure: as §1

PL-21 AML cell line = assay: Single agent cell viability (CellTiterGlo); type: cell-based; conditions: 72 h; PL-21, single agent, 3 days incubation, CellTiterGlo; read-out: IC50
Procedure: as §1

THP-1 AML cell line = assay: Single agent cell viability (CellTiterGlo); type: cell-based; conditions: Homo sapiens, 72 h; THP-1, single agent, 3 days incubation, CellTiterGlo; read-out: IC50
Procedure: as §1

[1] = system: mononuclear cells from ALL patient samples; assay: Cell viability assay (sytox blue flow cytometry) in primary ALL samples; type: cell-based; conditions: Homo sapiens, 48 h, combination at 1:1 ratio, read-out: 50% lethal concentration (LC50)
Procedure: Bone marrow or peripheral blood samples from patients with ALL were collected after informed consent in accordance with guidelines approved by The Alfred Hospital Human research ethics committee. Mononuclear cells were isolated by Ficoll-Paque (GE Healthcare, Australia) density-gradient centrifugation, followed by red cell depletion in ammonium chloride (NH4Cl) lysis buffer at 37° C. for 10 minutes. Cells were then re-suspended in phosphate-buffered saline containing 2% Fetal Bovine serum (Sigma, Australia). Mononuclear cells were then suspended in RPMI-1640 (GIBCO, Australia) medium containing penicillin and streptomycin (GIBCO) and heat inactivated fetal bovine serum 15% (Sigma).
Freshly purified mononuclear cells from ALL patient samples were adjusted to a concentration of 2.5×10^5/ml and 100 μL of cells aliquoted per well into 96 well plates (Sigma). Cells were then treated with indicated drugs over a […] concentration range from 1 nM to 10 μM for 48 hours. For combinations assays, drugs were added at a 1:1 ratio from 1 nM to 10 μM and incubated at 37° C. 5% CO2. Cells were then stained with sytox blue nucleic acid stain (Invitrogen, Australia) and fluorescence measured by flow cytometric analysis using the LSR-II Fortessa (Becton Dickinson, Australia). FACSDiva software was used for data collection, and FlowJo software for analysis. Blast cells were gated using forward and side scatter properties. Viable cells excluding sytox blue were determined at 6 concentrations for each drug and the 50% lethal concentration (LC50, in μM) determined.

primary AML samples = primary AML samples (leukemic progenitor cells), 10 nM
[2] = system: normal human CD34+ progenitor cells; conditions: 10 nM

Nc1ccn([C@@H]2O[C@H](CO)[C@@H](O)[C@@H]2O)c(=O)n1 [Cytarabine, cytarabine]
IC50 (EOL-1 AML cell line): 0.09 µM
IC50 (GDM-1 AML cell line): 0.03 µM
IC50 (HL-60 AML cell line): 0.74 µM
IC50 (KG1 AML cell line): 0.17 µM
IC50 (KG1a AML cell line): 0.24 µM
IC50 (Kasumi-1 AML cell line): 1.02 µM
IC50 (ML-2 AML cell line): 0.03 µM
IC50 (MOLM-13 AML cell line): 0.19 µM
IC50 (MV4; 11 AML cell line): 0.14 µM
IC50 (Nomo-1 AML cell line): 0.99 µM
IC50 (OCI-AML3 AML cell line): > 2 µM
IC50 (PL-21 AML cell line): 0.1 µM
IC50 (THP-1 AML cell line): > 2 µM
CC50 ([1]; ALL patient sample 01-046-2018, 48 hours): > 100 µM
CC50 ([1]; ALL patient sample AH6031524, 48 hours): 51.6 µM
CC50 ([1]; ALL patient sample AH6184311, 48 hours): 88 µM
CC50 ([1]; ALL patient sample AH6196680, 48 hours): > 100 µM
CC50 ([1]; ALL patient sample AH6198549, 48 hours): 10.6 µM
CC50 ([1]; ALL patient sample AH6258921, 48 hours): > 100 µM
CC50 ([1]; ALL patient sample AH7008157, 48 hours): > 100 µM
CC50 ([1]; ALL patient sample AH7024700, 48 hours): 35.9 µM
CC50 ([1]; ALL patient sample AH7104727, 48 hours): > 100 µM
CC50 ([1]; ALL patient sample TB 10-05-02, 48 hours): > 100 µM
CC50 ([1]; ALL patient sample TB 11-08-06, 48 hours): > 100 µM
CC50 ([1]; ALL patient sample TB 15-06-05, 48 hours): > 100 µM
CC50 ([1]; ALL patient sample TB 17-06-18, 48 hours): > 100 µM
CC50 ([1]; ALL patient sample TB120803, 48 hours): > 100 µM
CC50 ([1]; ALL patient sample TB151005, 48 hours): > 100 µM
clonogenic growth (primary AML samples): toxic
clonogenic growth [2]: toxic

Source: patent US11466023B2, “Combination of a Mcl-1 inhibitor and a standard of care treatment for hematologic cancers, uses and pharmaceutical compositions thereof” (LES LABORATOIRES SERVIER, priority 2017, dated 2022)
